From patent publication US12497365B2, “4-pyridinyl formamide compound or derivative thereof, preparation method therefor, herbicidal composition and use thereof” (Qingdao Kingagroot Chemical Compound Co., Ltd., priority 2019, dated 2025)

Legend:
Experiment in all cases: Weeding effect in post-emergence stage
Assay type in all cases: in vivo
Details in all cases: active ingredient 2000 g/ha, 3 weeks after application, fresh weight control rate
Abutilon theophrasti = test system: Abutilon theophrasti
Outline: (§1)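 Weeds sown in soil-filled pots under 0.5-2 cm cover were grown in a greenhouse and sprayed at the 2-3 leaf stage, 2 weeks after sowing. Compounds in acetone with Tween 80 and 1.5 liter/ha methyl oleate concentrate were applied at 2000, 1000, 500, 250 or 125 g/ha. Fresh weight control rate was scored after 3 weeks.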

[1] = test system: Amaranthus retroflexus L.
Outline: as §1

Chenopodium album = test system: Chenopodium album
Outline: as §1

Descurainia sophia = test system: Descurainia sophia
Outline: as §1

| Compound | Weeding effect, activity level (growth control rate), Abutilon theophrasti (Abutilon theophrasti) | Weeding effect, activity level (growth control rate), Amaranthus retroflexus L. [1] | Weeding effect, activity level (growth control rate), Chenopodium album (Chenopodium album) | Weeding effect, activity level (growth control rate), Descurainia sophia (Descurainia sophia) |
| --- | --- | --- | --- | --- |
| Cn1nnnc1NC(=O)c1ccnc(-c2cc(C#N)ccc2F)c1Cl [Compound 1-82] | 5 (Level 5: growth control rate is above 85%) | 5 (Level 5: growth control rate is above 85%) | 5 (Level 5: growth control rate is above 85%) | 5 (Level 5: growth control rate is above 85%) |
| Cn1nnnc1NC(=O)c1ccnc(-c2ccc(C#N)c(F)c2)c1Cl [Compound 1-79] | 5 (Level 5: growth control rate is above 85%) | 5 (Level 5: growth control rate is above 85%) | 5 (Level 5: growth control rate is above 85%) | 5 (Level 5: growth control rate is above 85%) |
| Cn1nnnc1NC(=O)c1ccnc(-c2ccc(F)nn2)c1Cl [Compound 1-154] | 5 (Level 5: growth control rate is above 85%) | 5 (Level 5: growth control rate is above 85%) | 5 (Level 5: growth control rate is above 85%) | 5 (Level 5: growth control rate is above 85%) |
| CCn1cc(-c2nccc(C(=O)Nc3nnnn3C)c2Cl)cn1 [Compound 1-172] | 5 (Level 5: growth control rate is above 85%) | 5 (Level 5: growth control rate is above 85%) | 5 (Level 5: growth control rate is above 85%) | 5 (Level 5: growth control rate is above 85%) |
| Cn1nnnc1NC(=O)c1ccnc(-c2ccccc2[N+](=O)[O-])c1Cl [Compound 1-38] | 5 (Level 5: growth control rate is above 85%) | 5 (Level 5: growth control rate is above 85%) | 5 (Level 5: growth control rate is above 85%) | 5 (Level 5: growth control rate is above 85%) |
| Cn1nnnc1NC(=O)c1ccnc(-c2cc(C(F)(F)F)cc(C(F)(F)F)c2)c1Cl [Compound 1-77] | 5 (Level 5: growth control rate is above 85%) | 5 (Level 5: growth control rate is above 85%) | 5 (Level 5: growth control rate is above 85%) | 5 (Level 5: growth control rate is above 85%) |
| Cn1nnnc1NC(=O)c1ccnc(-c2ccc(OC(F)(F)F)cc2)c1Cl [Compound 1-33] | 5 (Level 5: growth control rate is above 85%) | 5 (Level 5: growth control rate is above 85%) | 5 (Level 5: growth control rate is above 85%) | 5 (Level 5: growth control rate is above 85%) |
| COc1cccc(-c2nccc(C(=O)Nc3nnnn3C)c2Cl)c1F [Compound 1-72] | 5 (Level 5: growth control rate is above 85%) | 5 (Level 5: growth control rate is above 85%) | 5 (Level 5: growth control rate is above 85%) | 5 (Level 5: growth control rate is above 85%) |
| Cn1nnnc1NC(=O)c1ccnc(-c2ccc(Cl)cc2C(F)(F)F)c1Cl [Compound 1-101] | 5 (Level 5: growth control rate is above 85%) | 5 (Level 5: growth control rate is above 85%) | 5 (Level 5: growth control rate is above 85%) | 5 (Level 5: growth control rate is above 85%) |
| Cn1nnnc1NC(=O)c1ccnc(-c2cnc(C#N)nc2)c1Cl [Compound 1-159] | 5 (Level 5: growth control rate is above 85%) | 5 (Level 5: growth control rate is above 85%) | 5 (Level 5: growth control rate is above 85%) | 5 (Level 5: growth control rate is above 85%) |
| Cn1nnnc1NC(=O)c1ccnc(-c2cccc(Cl)c2)c1Cl [Compound 1-19] | 5 (Level 5: growth control rate is above 85%) | 5 (Level 5: growth control rate is above 85%) | 5 (Level 5: growth control rate is above 85%) | 5 (Level 5: growth control rate is above 85%) |
| Cc1ccc(F)c(-c2nccc(C(=O)Nc3nnnn3C)c2Cl)c1 [Compound 1-67] | 5 (Level 5: growth control rate is above 85%) | 5 (Level 5: growth control rate is above 85%) | 5 (Level 5: growth control rate is above 85%) | 5 (Level 5: growth control rate is above 85%) |
| Cn1nnnc1NC(=O)c1ccnc(-c2ccnn2C(F)F)c1Cl [Compound 1-181] | 5 (Level 5: growth control rate is above 85%) | 5 (Level 5: growth control rate is above 85%) | 5 (Level 5: growth control rate is above 85%) | 5 (Level 5: growth control rate is above 85%) |
| Cn1nnnc1NC(=O)c1ccnc(-c2ccc(Br)cc2)c1Cl [Compound 1-22] | 5 (Level 5: growth control rate is above 85%) | 5 (Level 5: growth control rate is above 85%) | 5 (Level 5: growth control rate is above 85%) | 5 (Level 5: growth control rate is above 85%) |
| Cn1nnnc1NC(=O)c1ccnc(-c2cccc(Br)c2F)c1Cl [Compound 1-97] | 5 (Level 5: growth control rate is above 85%) | 5 (Level 5: growth control rate is above 85%) | 5 (Level 5: growth control rate is above 85%) | 5 (Level 5: growth control rate is above 85%) |
| Cn1cc(-c2nccc(C(=O)Nc3nnnn3C)c2Cl)cn1 [Compound 1-168] | 5 (Level 5: growth control rate is above 85%) | 5 (Level 5: growth control rate is above 85%) | 5 (Level 5: growth control rate is above 85%) | 5 (Level 5: growth control rate is above 85%) |
| Cc1nnc(NC(=O)c2ccnc(-c3ccc(F)cc3)c2Cl)n1C [Compound 1-650] | 5 (Level 5: growth control rate is above 85%) | 5 (Level 5: growth control rate is above 85%) | 5 (Level 5: growth control rate is above 85%) | 5 (Level 5: growth control rate is above 85%) |
| C=Cc1c(C(=O)Nc2nnnn2C)ccnc1-c1ccc(F)cc1 [Compound 1-218] | 5 (Level 5: growth control rate is above 85%) | 5 (Level 5: growth control rate is above 85%) | 5 (Level 5: growth control rate is above 85%) | 5 (Level 5: growth control rate is above 85%) |
| CC(C)=NOc1c(C(=O)Nc2nnnn2C)ccnc1-c1ccc(F)cc1 [Compound 1-209] | 5 (Level 5: growth control rate is above 85%) | 5 (Level 5: growth control rate is above 85%) | 5 (Level 5: growth control rate is above 85%) | 5 (Level 5: growth control rate is above 85%) |
